{"source": "patent US6992169B2", "about": "“Carrier based drug delivery system” (Cyclacel Limited, priority 1998, dated 2006)", "assay": "Carcinoma cell line panel, SRB-assay", "description": "After incubation for 96 h, cytotoxicity was assessed using a standard SRB-assay.", "data": [{"smiles": "CC[C@H](C)[C@H](NC(=O)[C@H](CCCCN)NC(=O)[C@@H](NC(=O)[C@H](CCC(N)=O)NC(=O)[C@H](CCCNC(=N)N)NC(=O)[C@@H](N)CSC1CC(=O)N(CCC(=O)O[C@H]2C[C@H]3OC[C@@]3(OC(C)=O)[C@H]3[C@H](OC(=O)c4ccccc4)[C@]4(O)C[C@H](OC(=O)[C@H](O)[C@@H](NC(=O)c5ccccc5)c5ccccc5)C(C)=C([C@@H](OC(C)=O)C(=O)[C@]23C)C4(C)C)C1=O)[C@@H](C)CC)C(=O)N[C@@H](Cc1c[nH]c2ccccc12)C(=O)N[C@@H](Cc1ccccc1)C(=O)N[C@@H](CCC(N)=O)C(=O)N[C@@H](CC(N)=O)C(=O)N[C@@H](CCCNC(=N)N)C(=O)N[C@@H](CCCNC(=N)N)C(=O)N[C@@H](CCSC)C(=O)N[C@@H](CCCCN)C(=O)N[C@@H](Cc1c[nH]c2ccccc12)C(=O)N[C@@H](CCCCN)C(=O)N[C@@H](CCCCN)C(=O)O", "note": "(stereo partly shown) [7-Paclitaxel Vector Conjugate]", "values": [{"measurement": "IC50 at 96 h", "result": "> 25", "unit": "µM"}]}]}
